We go through two compounds from patent US20060148744A1, “Use of cis-epoxyeicosantrienoic acids and inhibitors of soluble epoxide hydrolase to reduce damage from stroke” (priority 2004, published 2006).

One data set addresses T1, sEH (Homo sapiens, UniProt P34913).
T1 sequence (P34913 1-555): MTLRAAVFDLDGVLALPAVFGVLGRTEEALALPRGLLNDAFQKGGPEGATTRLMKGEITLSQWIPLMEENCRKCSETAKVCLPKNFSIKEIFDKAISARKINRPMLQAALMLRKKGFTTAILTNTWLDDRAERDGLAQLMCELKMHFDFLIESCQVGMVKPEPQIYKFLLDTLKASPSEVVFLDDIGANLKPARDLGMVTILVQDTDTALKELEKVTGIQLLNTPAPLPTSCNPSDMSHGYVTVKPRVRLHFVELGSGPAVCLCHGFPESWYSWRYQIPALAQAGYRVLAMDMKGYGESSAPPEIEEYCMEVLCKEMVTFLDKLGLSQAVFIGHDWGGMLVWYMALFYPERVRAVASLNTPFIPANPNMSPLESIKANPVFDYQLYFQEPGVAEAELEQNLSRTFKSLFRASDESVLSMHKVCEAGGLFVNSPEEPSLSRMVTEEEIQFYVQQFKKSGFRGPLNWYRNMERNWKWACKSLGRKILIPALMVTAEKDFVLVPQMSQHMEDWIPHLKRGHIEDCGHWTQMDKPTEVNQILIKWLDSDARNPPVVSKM
The data set is described as follows: Inhibition of sEH. The class given is biochemical. The note with it: result in words. An excerpt:
Any of a number of standard assays for determining epoxide hydrolase activity can be used to determine inhibition of sEH. For example, suitable assays are described in Gill, et al., Anal Biochem 131, 273-282 (1983); and Borhan, et al., Analytical Biochemistry 231, 188-200 (1995)). Suitable in vitro assays are described in Zeldin et al., J Biol. Chem. 268:6402-6407 (1993). Suitable in vivo assays are described in Zeldin et al., Arch Biochem Biophys 330:87-96 (1996). […]
The enzyme also can be detected based on the binding of specific ligands to the catalytic site which either immobilize the enzyme or label it with a probe such as dansyl, fluoracein, luciferase, green fluorescent protein or other reagent. […] The enzyme also can be detected based on the generation of fluorescent products following the hydrolysis of the epoxide. […]

Another data set can be described thus: Metabolic stability. The class given is in vitro ADME. The note with it: result in words.
Data set [1] has as its system stroke prone spontaneously hypertensive rats. In words: Cerebral ischemia by middle cerebral artery occlusion (intralumenal suture), infarct size by TTC staining. The note with it: SPSHR, six weeks oral treatment, six hours post MCA occlusion, n=6, p<0.01 vs. vehicle. In kind it is in vivo, rat. On the procedure: After six weeks of treatment, cerebral ischemia was induced by middle cerebral artery occlusion using the intralumenal suture occlusion technique. Rats were anesthetized with sodium pentobarbital (50 mg/kg IP) and body temperature was maintained at 37° C. using a microprocessor-controlled heating pad and a rectal temperature probe. The skin over the skull was retracted and the bone was thinned using a low speed drill. A laser Doppler flow probe (Perimed) was glued to the skull 2 mm posterior and 6 mm lateral to the bregma to allow for confirmation of middle cerebral artery (“MCA”) occlusion. The MCA was then occluded using the thread occlusion model as described by Zea Longa et al. “Reversible middle cerebral artery occlusion without craniotomy in rats”, Stroke 20:84-91 (1989). The common carotid artery was exposed by a midline incision and the pterygopalatine artery was ligated and the branches of the external carotid artery were cauterized. A 3-0 monofilament thread with a rounded tip was introduced into the external carotid artery in a retrograde fashion. […] Digital images of the brain slices were produced and the infarct volume was analyzed using a computerized image analysis system (NIH image, version 1.55). The percent of the hemisphere infarcted was measured using the Swanson equation to account for cerebral edema. […]

Data set [2] can be described thus: Systolic blood pressure in treated SPSHR. In kind it is in vivo, rat. The note with it: SPSHR treated with AUDA. The source says: This difference in infarct size occurred independently of changes in systolic blood pressure (193±2 vs. 197±6 mm Hg, AUDA vs. vehicle).
For data set [3] the following is noted: rat, in vivo, po. As to the method:
The sEH inhibitor, adamantyl dodecanoic acid (AUDA) was administered orally to six-week-old male stroke prone spontaneously hypertensive rats (“SPSHR”).

`CCCCCCCCCCCCNC(=O)NC12CC3CC(CC(C3)C1)C2` [ADU, N-Adamantyl-N′-dodecyl urea]: on sEH, the “activity as an inhibitor of sEH” value is “particularly high activity on sEH”. Also, in the data set “Metabolic stability”, the metabolic stability result is “metabolically stable”.

On to adamantyl dodecanoic acid [AUDA], for which the “% hemisphere infarcted” value in data set [1] came to 35.9±3.83 % hemisphere infarcted. Moreover, in data set [2], the systolic blood pressure is 193±2 mm Hg. Also, in data set [3], the “Plasma levels of AUDA at the end of the treatment period” value was 5.03 ± 0.32 ng/mL and the “urinary AUDA excretion rate” value was 111.6 ± 24.4 ng/day.
